From US20250276977A1, “TYK2 INHIBITORS AND USES THEREOF” (Alumis Inc., priority 2019, published 2025)
Like-named read-outs stand apart in the source and are kept apart here.

Test system: INFα induced pSTAT5
Test: INFα induced pSTAT5 in human PBMC
Type: cell-based
Conditions: INFα 5000 units/ml, read-out: p-STAT5 IC50
Procedure: Fresh Human PBMCs were resuspended in RPMI 1640 medium with 10% FBS. Cells were seeded in a round bottom 96-well plate at the concentration of 200,000 cells/well. A 10-point dilution series of test compound (top dose 10 uM, 1:5 dilution) was added to the well using the liquid dispenser (Tecan D300e) and incubated for 1 hour at 37 C. Then human INFα recombinant protein (R&D Systems) was added to the well at the final concentration of 5000 units/ml and incubated for 15 minutes at 37 C. Cell lysates were prepared and analyzed by Phospho STAT3 (Tyr705) cellular kit (Cisbio) or Phospho STAT5 (Tyr693) Kit (Meso Scale Discovery) following manufacturer's protocol.
For calculation of the inhibition rate, the relative pSTAT signal of each well=pSTAT signal of each well−the average pSTAT signal of baseline.
The inhibition %=(the average pSTAT signal of INFα treatment wells—the relative of pSTAT signal in each compound containing well)/the average pSTAT signal of INFα treatment wells * 100%
The curve was plotted as the inhibition % (y-axis) vs. compounds concentration (x-axis) and was fitted with log(inhibitor) vs. normalized response—Variable slope by GraphPad Prism7.0.

Compound	IC50 (Homo sapiens, PBMC)	IC50
CNc1cc2nn3c(cnc13)C(=O)N[C@H](C)COCc1cc(F)c(OC)c(c1)N2 [Example 18, (7R,E)-3^5-fluoro-3^6-methoxy-7-methyl-1^8-(methylamino)-5-oxa-2,8-diaza-1(6,3)-imidazo[1,2-b]pyridazina-3(1, 3)-benzenacyclononaphan-9-one]	1.3 nM	–
CNc1cc2nn3c(cnc13)C(=O)N[C@H](C)COCc1nc(C)cc(n1)N2 [Example 50, (7R,E)-3^6,7-dimethyl-1^8-(methylamino)-5-oxa-2,8-diaza-1(6,3)-imidazo[1,2-b]pyridazina-3(4,2)-pyrimidinacyclononaphan-9-one]	> 1000 nM	–
CNc1cc2nc3c(cnn13)C(=O)N[C@H](C)COCc1ccc(OC)c(c1)N2 [Example 25]	2.1 nM	–
CNc1cc2nc3c(cnn13)C(=O)N[C@H](C)COCc1cc(F)c(OC)c(c1)N2 [Example 62]	3.8 nM	–
CNc1cc2nn3c(cnc13)C(=O)N[C@H](C)COCc1cc(c(=O)n(C)n1)N2 [Example 58, (15E,34E,7R)-31,7-dimethyl-18-(methylamino)-31,36-dihydro-5-oxa-2,8-diaza-1(6,3)-imidazo[1,2-b]pyridazina-3(5,3)-pyridazinacyclononaphane-36,9-dione]	7.7 nM	–
CNc1cc2nn3c(cnc13)C(=O)N[C@H](C)COCc1ccc(OC)c(c1)N2 [Example 42]	13.6 nM	–
CNc1cc2nc3c(cnn13)C(=O)N[C@H](C)COCc1ccc(C#N)c(c1)N2 [Example 40]	2.4 nM	–
CNc1cc2nc3c(cnn13)C(=O)N[C@H](C)COCc1cc(c(OC)nn1)N2 [Example 59, (R,1^3E,1^4E)-3^6-methoxy-7-methyl-1^7-(methylamino)-5-oxa-2,8-diaza-1(5,3)-pyrazolo[1,5-a]pyrimidina-3(5,3)-pyridazinacyclononaphan-9-one]	39.1 nM	–
CNc1cc2nc3c(cnn13)C(=O)N[C@@H](C)C(C)OCc1ccc(OC)c(c1)N2 (stereo partly drawn) [Example 30]	> 200 nM	–
CNc1cc2nc3c(cnn13)C(=O)N[C@H](C)COCc1cc(c3nnn(C)c3c1)N2 [Example 36]	0.7 nM	–
CNc1cc2nc3c(cnn13)C(=O)N[C@H](C)COCc1cc(nc(N3CCCC3=O)c1)N2 [Example 49]	1.7 nM	–
CNc1cc2nn3c(cnc13)C(=O)N[C@H](C)COCc1cnc(OC)c(c1)N2 [Example 14]	3 nM	–
CNc1cc2nc3c(cnn13)C(=O)N[C@H](C)COCc1ccc(F)c(c1)N2 [Example 56, (R, 1^3E, 1^4E)-3^6-fluoro-7-methyl-1^7-(methylamino)-5-oxa-2,8-diaza-1(5,3)-pyrazolo[1,5-a]pyrimidina-3(1,3)-benzenacyclononaphan-9-one]	28.8 nM	–
CNC(=O)c1ccc2cc1Nc1cc(NC)n3ncc(c3n1)C(=O)N[C@H](C)COC2 [Example 41]	3.6 nM	–
CNc1cc2nc3c(cnn13)C(=O)N[C@H](C)COCc1cc(c3nn(C)cc3c1)N2 [Example 29]	3.1 nM	–
CNc1cc2nc3c(cnn13)C(=O)N[C@H](C)C(C)OCc1ccc(OC)c(c1)N2 (single isomer, unassigned) [Example 33]	–	42.8 nM
CNc1cc2nc3c(cnn13)C(=O)N[C@H](C)COCc1cc(c3oc(C)nc3c1)N2 [Example 34]	2.5 nM	–
CNc1cc2nc3c(cnn13)C(=O)N[C@H](C)COCc1cc(c(OC)cc1F)N2 [Example 52, (R, 1^3E, 1^4E)-3^4-fluoro-3^6-methoxy-7-methyl-1^7-(methylamino)-5-oxa-2,8-diaza-1(5,3)-pyrazolo[1,5-a]pyrimidina-3(1,3)-benzenacyclononaphan-9-one]	5.9 nM	–
CNc1cc2nc3c(cnn13)C(=O)N[C@H](C)C(C)OCc1ccc(OC)c(c1)N2 (single isomer, unassigned) [Example 32]	–	0.7 nM
CNc1cc2nc3c(cnn13)C(=O)N[C@H](C)COCc1cc(c3cn(C)nc3c1)N2 [Example 53, (R, 1^3E, 1^4E, 3^4E)-3^2,7-dimethyl-1^7-(methylamino)-3^2H-5-oxa-2,8-diaza-1(5,3)-pyrazolo[1,5-a]pyrimidina-3(4,6)-indazolacyclononaphan-9-one]	9.4 nM	–
CNc1cc2nn3c(cnc13)C(=O)NC(C)COCc1cc(c(OC)cc1F)N2 (stereo not drawn) [Example 16]	3.6 nM	–
CNc1cc2nc3c(cnn13)C(=O)N[C@H](C)COCc1cnc(OC)c(c1)N2 [Example 47]	–	2.4 nM
CNc1cc2nc3c(cnn13)C(=O)N[C@H](C)COCc1cc(C#N)cc(c1)N2 [Example 44]	2 nM	–
CNc1cc2nc3c(cnn13)C(=O)N[C@H](C)COCc1cnc(OC)c(c1)N2 [Example 26]	–	> 200 nM

Compound	IC50 (Homo sapiens, PBMC)	IC50
CNc1cc2nn3c(cnc13)C(=O)NCCCOc1cnc(OC)c(c1)N2 [Example 5]	151 nM	–
CNc1cc2nc3c(cnn13)C(=O)N[C@@H](C)C(C)OCc1ccc(OC)c(c1)N2 (stereo partly drawn) [Example 31]	–	> 200 nM
CNc1cc2nc3c(cnn13)C(=O)N[C@H](C)COCc1cc(cc(OC)c1)N2 [Example 45]	1.1 nM	–
CNc1cc2nn3c(cnc13)C(=O)NCCOCc1cccc(OC)c1N2 [Example 9]	923 nM	–
CNc1cc2nc3c(cnn13)C(=O)N[C@H](C)COCc1cc(c(=O)n(-c3ccccn3)c1)N2 [Example 28]	8.3 nM	–
CNc1cc2nn3c(cnc13)C(=O)NCC(C)OCc1ccc(OC)c(c1)N2 (stereo not drawn) [Example 8]	13.9 nM	–
CNc1cc2nc3c(cnn13)C(=O)N[C@H](C)COCc1cc(c3nccn3c1)N2 [Example 60, (R,1^3E,1^4E,3^7E)-7-methyl-1^7-(methylamino)-5-oxa-2,8-diaza-1(5,3)-pyrazolo[1,5-a]pyrimidina-3(8,6)-imidazo[1,2-a]pyridinacyclononaphan-9-one]	3.8 nM	–
CNc1cc2nn3c(cnc13)C(=O)N[C@@H](C)COCc1ccc(OC)c(c1)N2 [Example 11]	436 nM	–
CNc1cc2nc3c(cnn13)C(=O)N[C@H](C)COCc1cc(Br)c(OC)c(c1)N2 [Example 48]	16.7 nM	–
CNc1cc2nc3c(cnn13)C(=O)NC(C)COCc1ccc(OC)c(c1)N2 (stereo not drawn) [Example 12]	2.2 nM	–
CNc1cc2nc3c(cnn13)C(=O)N[C@H](C)COCc1cc(c(=O)n(C)n1)N2 [Example 57, (R,1^3E,1^4E,3^4E)-31,7-dimethyl-1^7-(methylamino)-3^1,3^6-dihydro-5-oxa-2,8-diaza-1(5,3)-pyrazolo[1,5-a]pyrimidina-3(5,3)-pyridazinacyclononaphane-36,9-dione]	21.2 nM	–
CNc1cc2nn3c(cnc13)C(=O)N[C@H](C)COCc1cc(c(OC)cc1F)N2 [Example 17, (E)-3^4-fluoro-3^6-methoxy-7-methyl-1^8-(methylamino)-5-oxa-2,8-diaza-1(6,3)-imidazo[1,2-b]pyridazina-3(1,3)-benzenacyclononaphan-9-one]	1 nM	–
CNc1cc2nc3c(cnn13)C(=O)N[C@H](C)COCc1cc(c(OC)cn1)N2 [Example 27]	7.2 nM	–
CNc1cc2nc3c(cnn13)C(=O)N[C@H](C)COc1ccc(OC)c(c1)N2 [Example 38]	> 200 nM	–
CNc1cc2nc3c(cnn13)C(=O)N[C@H](C)COCc1cc(c3nn(C)nc3c1)N2 [Example 35]	1.7 nM	–
CNc1cc2nn3c(cnc13)C(=O)N[C@H]1C[C@H](C1)OCc1ccc(OC)c(c1)N2 [Example 22]	10.7 nM	–
CNc1cc2nn3c(cnc13)C(=O)NCCOC(C)c1ccc(OC)c(c1)N2 (stereo not drawn) [Example 13]	460 nM	–
COc1ccc2nc1Nc1cc(N)n3ncc(c3n1)C(=O)N[C@H](C)COC2 [Example 55, (R, 1^3E, 1^4E)-33-methoxy-7-methyl-1^7-(methylamino)-5-oxa-2,8-diaza-1(5,3)-pyrazolo[1,5-a]pyrimidina-3(2,6)-pyridinacyclononaphan-9-one]	> 200 nM	–
CNc1cc2nn3c(cnc13)C(=O)NC(C)CCn1ncc3cc(OC)c(cc31)N2 (stereo not drawn) [Example 21, (E)-3^5-methoxy-6-methyl-1^8-(methylamino)-31H-2,7-diaza-1(6,3)-imidazo [1,2-b]pyridazina-3(6,1)-indazolacyclooctaphan-8-one]	102 nM	–
CNc1cc2nc3c(cnn13)C(=O)N[C@H](C)COCc1cc(c3c(c1)nnn3C)N2 [Example 37]	90.1 nM	–
CNc1cc2nn3c(cnc13)C(=O)NC1(CC1)COCc1ccc(OC)c(c1)N2 [Example 20, (E)-6′-methoxy-8′-(methylamino)spiro[cyclopropane-1,7′-5-oxa-2,8-diaza-1(6,3)-imidazo[1,2-b]pyridazina-3(1,3)-benzenacyclononaphan]-9′-one]	15.3 nM	–
CNc1cc2nc3c(cnn13)C(=O)N[C@H](C)COCc1ccc(OC(F)(F)F)c(c1)N2 [Example 43]	3.8 nM	–
CNc1cc2nc3c(cnn13)C(=O)N[C@H](C)COCc1cc(F)cc(c1)N2 [Example 46]	2.8 nM	–
CNc1cc2nc3c(cnn13)C(=O)N[C@H](C)COCc1cc(c3cnn(C)c3c1)N2 [Example 54, (R, 1^3E, 1^4E)-31,7-dimethyl-1^7-(methylamino)-31H-5-oxa-2,8-diaza-1(5,3)-pyrazolo[1,5-a]pyrimidina-3(4,6)-indazolacyclononaphan-9-one]	0.3 nM	–
